Drawing on paper PMC3499586, “Heterotrimeric G-protein Signaling Is Critical to Pathogenic Processes in Entamoeba histolytica” (PLoS Pathogens, 2012), this text covers kobs and Kd for two molecules.

The target of assay [1] is T1, EhGα1 (Entamoeba histolytica, UniProt C4M483).
T1 construct: gene EHI_140350; E. coli; N-terminal TEV-cleavable His6 tag; HM-1:IMSS used for trophozoite work
Briefly: […]GTPγS radionucleotide binding. The conditions noted are these: 30 °C; association limited by spontaneous GDP release; labelled compound; a rate, not an affinity.

Assay [2] deals with T2, human Gαi1 (Homo sapiens, UniProt P63096).
T2 construct: gene GNAI1; purified protein; details not in main text
Briefly: […]GTPγS radionucleotide binding. Particulars: 30 °C; association limited by spontaneous GDP release; labelled compound; a rate, not an affinity; figure legend gives 0.06 ±0.01.

The target in assay [3] is T3, EhRGS-RhoGEF (E. histolytica, UniProt C4LYV4 1-519).
T3 chain: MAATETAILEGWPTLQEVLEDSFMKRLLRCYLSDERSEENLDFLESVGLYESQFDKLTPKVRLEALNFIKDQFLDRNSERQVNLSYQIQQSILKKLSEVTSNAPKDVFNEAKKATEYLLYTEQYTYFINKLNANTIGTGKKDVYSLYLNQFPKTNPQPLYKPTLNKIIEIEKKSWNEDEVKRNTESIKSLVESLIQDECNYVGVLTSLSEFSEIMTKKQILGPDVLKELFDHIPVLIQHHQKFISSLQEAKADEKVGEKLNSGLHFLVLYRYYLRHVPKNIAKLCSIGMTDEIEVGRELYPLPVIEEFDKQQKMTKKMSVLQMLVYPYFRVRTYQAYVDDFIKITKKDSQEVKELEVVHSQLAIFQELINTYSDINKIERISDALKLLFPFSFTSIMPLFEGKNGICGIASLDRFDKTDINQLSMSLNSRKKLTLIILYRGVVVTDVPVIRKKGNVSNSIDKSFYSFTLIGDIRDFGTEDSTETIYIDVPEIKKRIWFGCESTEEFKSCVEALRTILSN
Briefly: SPR.

T2 sequence (P63096 2-354): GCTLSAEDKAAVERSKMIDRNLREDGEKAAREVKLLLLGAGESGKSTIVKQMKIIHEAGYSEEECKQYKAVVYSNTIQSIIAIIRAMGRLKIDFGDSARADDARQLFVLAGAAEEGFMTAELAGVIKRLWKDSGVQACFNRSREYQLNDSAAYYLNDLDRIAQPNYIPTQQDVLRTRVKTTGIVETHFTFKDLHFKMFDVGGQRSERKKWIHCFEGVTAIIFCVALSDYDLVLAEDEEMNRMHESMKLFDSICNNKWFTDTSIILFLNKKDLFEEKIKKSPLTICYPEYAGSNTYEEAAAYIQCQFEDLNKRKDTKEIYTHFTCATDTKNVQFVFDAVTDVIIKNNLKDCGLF

As for `Nc1nc2c(ncn2[C@@H]2O[C@H](COP(=O)(O)OP(=O)(O)OP(O)(O)=S)[C@@H](O)[C@H]2O)c(=O)[nH]1` [GTPγS], the kobs in assay [1] was determined as 0.27 ± 0.06 min⁻¹; in assay [2], 0.064 min⁻¹.

B1: EhGα1 (recombinant, purified from E. coli) (natural protein)
chain: MGCGQSKDNSIDKQIVEMAKSKPITVMLLGSGESGKSTIAKQLKILFGGGFPEQERATHKSSICSNVVTCMRTLIEQSAILNHPMKYQPKSKEFTTEDPVTLPFSPELVGDVEALWADEGIQATYEESAKFQLPDCAKYLFENVKRIAMEDYVPTEEDLIHNRTKTTGIHEYDFVVKDIPFHLIDVGGQRSERKKWVSFFSDVDCAIFVTSLAEYDMKLYEDGNTSRLTESIAVFKDIMTNEFLKGAVKLIFLNKMDLFEEKLTKVPLNTIFPEYTGGDNAVMGAQYIQQLFTGKLQTEEMNISGADGTANIEGAVNEKVYTNPTNATDGSNIKRVFMLAVDVIMKNMAANGKMRPTK
The molecule B1 displayed a Kd in assay [3] of 2.1 µM.
